Row | SMILES | melting point [°C]
1 | NC(=O)NC[C@@H]1CCCc2cc(Sc3cccc(F)c3)cc(F)c21 | 131 to 132
2 | NC(=O)[C@@H]1C[C@H](S)CN1C(=O)OCc1ccc([N+](=O)[O-])cc1 | 158 to 162
3 | CC1CC1n1cc(C(=O)O)c(=O)c2cc(F)c(F)c(F)c21 (stereo unspecified) | 167 to 168
4 | CCOC(=O)C1=C(C)Nc2nc(N3CCOCC3)nc(N3CCOCC3)c2C1c1ccccc1 (stereo unspecified) | 178
5 | COc1cc(OC)nc(-n2c(C(F)(F)F)nc3cc(C)ccc32)n1 | 93 to 96
6 | CC1(C)Oc2ccc(C#N)cc2[C@@H](N2CCCC2=NC#N)[C@@H]1O (relative stereo) | 246 to 247
7 | CCC(Oc1c(Br)cccc1Br)C(=O)OC1CC(O)C=C2C=CC(C)C(CCC3CC(O)CC(=O)O3)C21 (mixture of isomers) | 114 to 116
8 | COc1cccc(-n2c(CCl)nc3ccccc3c2=O)c1 | 180 to 182
9 | CC(C)(CCl)c1cc(Cl)nnc1Br | 79 to 81
10 | O=C(O)C(=O)Nc1nccs1 | 174 to 177
11 | COc1cc2[nH]cc(C3CN4CCC3CC4)c2cc1OC (stereo unspecified) | 243 to 245
12 | O=C(O)c1cc(NCc2c(F)c(F)c(C(F)(F)F)c(F)c2F)ccc1Cl | 58
13 | c1cc2[nH]ncc2cc1OC1CCCC1 | 141 to 142
14 | C=CC(=O)Nc1cccc(CCCc2n[nH]c3cc(C)nn23)c1 | 195 to 197
15 | O=C1CCC2(CC1)CC(=O)NC2=O | 154
16 | Cc1ccc(C2COc3c(C)c(C)c(N)c(C)c32)nc1 (stereo unspecified) | 125 to 127
17 | Cc1ccc(S(N)(=O)=O)cc1C(C)O (stereo unspecified) | 155 to 158
18 | CS(=O)(=O)c1ccc(-n2nc(C(F)(F)F)cc2-c2nc3ccc(F)cc3o2)cc1 | 216 to 218
19 | Cc1cccc(C(=O)CC2CCCN(C)C2)c1 (stereo unspecified) | 92 to 94
20 | CCC(C)CCCCCCCCCCCCCCCCC(=O)O (stereo unspecified) | 53
21 | CCc1cc2oc(=O)c([N+](=O)[O-])c(O)c2cc1CC | 115 to 117

Row | SMILES | melting point [°C]
22 | COC=C(C(=O)OC)c1csc2ccc(C=O)cc12 | 134 to 135
23 | CN(C)CCn1c(=O)c2cccc([N+](=O)[O-])c2c2cnc3cc4c(cc3c21)OCO4 | 96 to 97
24 | O=C(c1cc2[nH]nc(-c3cc4cc(CO)ccc4[nH]3)c2s1)N1CCN(c2ccc(F)cc2)CC1 | 156 to 158
25 | C=C(C)COc1cc(C)c(NC(=O)CC(C)(C)C)c(C)c1Cc1ccc(C(C)C)cc1 | 129 to 130
26 | CS(=O)(=O)CC(=O)NC(=O)N1CC1C#N (stereo unspecified) | 126 to 128
27 | CCCCCCSCCSc1nc(N)n[nH]1 | 76.5 to 78
28 | O=C1Nc2cccc(Br)c2C12COc1cc3c(cc12)OCCO3 (stereo unspecified) | > 250
29 | CCCCCCC(C)N(C(C)=O)c1ccc(I)cc1 (stereo unspecified) | 60 to 62
30 | CN(C)CCNC1=CC(=O)c2oc(-c3cc(F)ccc3F)nc2C1=O | 181 to 182
31 | CC(=O)NC12CC3CC(C)(CC(C)(C3)C1)C2 | 113 to 114
32 | CC(C)Sc1ccoc1C(=O)Nc1nnn[nH]1 | 201 to 203
33 | N=C(N)c1ccc(Cl)cc1 | 266 to 268
34 | CCCNC(=S)NS(=O)(=O)c1cc2c(cc1OC)OCCC2CNC(=O)c1cc(Cl)ccc1OC (stereo unspecified) | 183 to 184
35 | O=C1CCc2cc(NCC(=O)N3CCC(Oc4ccc(Cl)cc4)CC3)ccc2N1 | 248 to 251
36 | CC(C(N)=O)C1CC(c2ccc(N3CCSCC3)c(F)c2)=NO1 (stereo unspecified) | 188 to 189
37 | CC(=O)NCCOc1ccc([N+](=O)[O-])cc1O | 165
38 | Cc1ccc(S(=O)(=O)C2(CC#Cc3ccc(Cl)cc3)CC(=O)NC2=O)cc1 (stereo unspecified) | 186 to 188
39 | CCCCCCc1cc2c(cc1S)C(=O)CC2 | 100
40 | CC(=O)NC(C)(C)c1ccc(C(C)O)cc1 (stereo unspecified) | 146 to 149
41 | CC(N)Cn1ncc2ccc3c(c21)CC(O)CO3 (stereo unspecified) | 46 to 51
42 | CCN1C(=O)C(C)(C)C(=O)N(C)c2cc(CN(CCn3cc(C)c4occc4c3=O)Cc3scnc3C)ccc21 | 134 to 136

Continued, values first:

Row | melting point [°C] | SMILES
43 | 121 | CC(=O)N1c2ccccc2C=Cc2ccccc21
44 | 232 to 233 | O=C(C=Cc1ccc(-c2nnn[nH]2)cc1)N1CCc2c([nH]c3ccccc23)C1c1ccc2c(c1)OCO2 (stereo unspecified)
45 | 151 to 153 | ON=C(Cc1ccccc1)c1ccccn1
46 | 105 to 108 | O=S(=O)(CC(F)(F)F)Nc1ccc(Oc2ccc(F)cc2F)cc1
47 | 128 to 129 | CC(C)(C)OC(=O)NCCc1cccc(C(=O)c2cc(Cl)ccc2N)c1
48 | 140 to 142 | CCCCc1nn(-c2ccccc2Cl)c(=O)n1Cc1ccc(-c2ccccc2S(N)(=O)=O)cc1
49 | 146 to 149 | O=C(O)COc1cccc2c1CCc1sc(Cc3ccccc3)nc1-2
50 | 171 to 172 | C=C(Cc1ccc(-c2cccc3cncn23)cc1)C(=O)O
51 | 179 to 180 | CCCCn1c(=O)c(NC(=O)Nc2c(C(C)C)ccc(NC(=O)c3cccnc3)c2C(C)C)c(-c2cccc(OC)c2)c2cccnc21
52 | 376 | N#Cc1c(Cl)ccc2[nH]c(Sc3cccc4c(=O)cc[nH]c34)nc12
53 | 76.4 to 77.7 | OCCCON=Cc1cn(Cc2ccccc2)c2ccccc12
54 | > 240 | CCOCc1cc(Cn2cc(C3c4ccccc4C=Cc4ccccc43)c(=S)[nH]c2=O)cc(C(=O)O)c1
55 | 102 to 104 | CCOC(=O)c1ccc(C#Cc2ccc3c(c2)C(=O)CC(C)(C)S3)cc1
56 | 161 | CCCn1cc(CN(C(=O)C2CCCc3c(O)cccc32)c2ccc(C(C)C)cc2)cn1 (stereo unspecified)
57 | 227 to 228 | O=c1[nH]c2ccccc2c(=O)cc1Nc1ccccc1
58 | 97 to 99 | CCNc1nc(NCc2ccco2)nc(Nc2ccc3nc(C)sc3c2)n1
59 | 212 to 214 | COC(=O)c1ccc2oc3c(c(=O)c2c1)CCC3=Cc1ccc(C)cc1C
60 | 218 to 223 | O=C(O)c1cc2cc(Cl)cc(Cl)c2nc1N[C@@H](Cc1ccccc1)C(=O)O
61 | 210 | Oc1ccc2cc(-c3ccc(-c4ccccc4)[nH]3)ccc2c1
62 | 188 to 190 | CCCn1nc2c(N)nc3ccccc3c2c1CC(C)(C)O

Row | melting point [°C] | SMILES
63 | 55 to 57 | O=[N+]([O-])c1ccc(OCCn2ccnc2)cc1
64 | 166 to 167 | N#CCCNC(=O)c1cc(-c2cccc3nn(Cc4cccc(C(F)(F)F)c4)cc23)ccn1
65 | 113 to 114 | COc1cc(C(O)c2ccc3ccccc3c2)ccc1OCc1ccccc1 (stereo unspecified)
66 | 196 to 197 | COc1ccc(-n2cnc3ccc(C(=O)NN)cc32)cc1
67 | 154 to 156 | CCCc1c(OC(C(=O)O)c2ccc(OC)cc2)ccc(C(C)=O)c1O (stereo unspecified)
68 | 184 to 186 | Cc1ccc(-c2c(C#N)cccc2C#N)cc1
69 | 152 | O=[N+]([O-])c1ccc(C=C2c3ccccc3C=Cc3ccccc32)cc1
70 | 150 to 152 | CC(=O)Nc1ccc(C=CC(=O)c2ccc(OCC=C(C)C)cc2O)cc1
71 | 107 to 109 | OC(CNc1ccc(Cl)cc1Cl)Cn1ccnc1 (stereo unspecified)
72 | 75 | O=Cc1ccc2ccn(C(c3ccccc3)c3cccc(C=Cc4ccc5ccccc5n4)c3)c2c1 (stereo unspecified)
73 | 276 to 278 | N#Cc1ccc(-c2ccc(-c3cn4cc(C#N)ccc4n3)cc2)cc1
74 | 187 to 189 | COc1cc(C2(O)NC(=O)c3cc(OCc4ccccc4)ccc32)cc(OC)c1OC (stereo unspecified)
75 | 216 to 218 | Oc1ccc(-c2cc3cc(Cl)ccc3o2)cc1
76 | 152 | COC(=O)c1c(Sc2ccc(OC)cc2)nc(C)n1Cc1cc2c(cc1Cl)OCO2
77 | 94 to 94.5 | CC(=O)SCC(C)C(=O)N(CC(=O)O)c1ccccc1 (stereo unspecified)
78 | 268 to 269 | Cc1[nH]c(=S)[nH]c1C(=O)c1ccccc1
79 | 132 to 134 | C=CCOc1ccccc1C(=O)Nc1c(CCC)nn(C)c1C(N)=O
80 | 147 to 148 | Cc1c(NC(=O)c2cccc(Oc3ccccc3)c2)ccc2cc(CN3CCCC3)cnc12
81 | 78 to 79 | CC1(C)CCC(C)(C)c2cc(C(=O)OCc3ccc(C(=O)OCc4ccccc4)cc3)ccc21
82 | 126 | O=C(N[C@@H](Cc1ccccc1)C(=O)O)OCC(Cl)(Cl)Cl

Row | melting point [°C] | SMILES
83 | 117 to 118 | CCOC(=O)c1cccc2ncc(CN(C)C)n12
84 | 191 to 193 | O=C(Nc1ccc(N2CCN(Cc3ccc[nH]3)CC2)cc1)c1ccccc1-c1ccc(C(F)(F)F)cc1
85 | 73 to 78 | Cn1cc(Cc2ccc(C(=O)N3CCC(N4CCCC4)C3)cc2)c2ccccc21 (stereo unspecified)
86 | 162 to 164 | O=C1CC(=Cc2cccc3ccccc23)C(=O)O1
87 | 228 to 229 | Oc1ccc(-c2cc3cc(Br)ccc3o2)cc1
88 | 293 | N#Cc1c(N2CCN(C(=O)c3ccco3)CC2)c2cc(F)cnc2n(CC(=O)c2ccccc2)c1=O
89 | 170 to 172 | Cc1cc(-c2ccc(F)cc2F)n(-c2ccc(S(N)(=O)=O)cc2)c1
90 | 228 to 230 | O=c1[nH]c2cc(OCC(O)CN3CCOCC3)ccc2c2oc3ccccc3c12 (stereo unspecified)
91 | 175 to 178 | NNc1cc2c(nn1)CCN(C(=O)CC(c1ccccc1)c1ccccc1)C2
92 | 212 to 214 | Cc1ccc(-c2cc3c(n2-c2ccc(O)c(C(=O)O)c2)CCCC3)cc1
93 | 164 to 165 | Cc1oc(-c2ccccc2)nc1COc1ccc(COc2nn(-c3ccccc3)cc2CC(=O)O)cn1
94 | 137 to 138 | CNC(=O)C1=CN=C(N2CCN(C)CC2)CC1c1ccccc1C (racemic)
95 | 168 to 169 | O=C(NCc1ccc(Cl)cc1)c1ccc2sccc2c1O
96 | 91 to 93 | Nc1cccnc1Nc1ccccc1C(=O)c1ccccc1
97 | 70 to 71 | O=C1c2ccccc2CN1CCCOc1ccncc1
98 | 170 | CCO[C@H]1c2ccc3c(nc(C)n3C)c2N[C@H](c2ccccc2)[C@H]1O
99 | 108 to 114 | CCc1nc2cc(N(C)C)c(Cl)cc2n1-c1ccc(CCNC(=O)NS(=O)(=O)c2ccc(C)cc2)cc1
100 | 69 to 70 | Nc1ccc(CCc2cscn2)cc1
101 | 177 to 178 | N#Cc1ccc(-c2cn(-c3ccc(Br)cc3)c(SCc3cccnc3)n2)cc1
